Measured values: US7642354B2, “Polycyclic pyrazines as potassium ion channel modulators” (Icagen, Inc., priority 2004, dated 2010)
Several values for one entry are separate records, joined by “and”; a condition that tells them apart may be missing. Equal values may be shown once.

Target: hSK2 (Homo sapiens, UniProt Q9H2S1)
Assay: Assay for compound activity towards hSK channels (86Rb+ efflux)
Format: cell-based
Details: 86Rb+ efflux stimulated with calcium ionophore; drug 0.01 to 30 μM in EBSS; read-out: hSK2 Inhibitory Activity
Description: 18.1 Assay for Compound Activity Towards hSK Channels Cells expressing small conductance, calcium activated potassium channels, such as SK-like channels were loaded with ^86Rb^+ by culture in media containing ^86RbCl. Following loading, the culture media was removed and the cells were washed in EBSS to remove residual traces of ^86Rb^+. Cells were preincubated with the drug (0.01 to 30 μM in EBSS) and then ^86Rb^+ efflux was stimulated by exposing cells to EBSS solution supplemented with a calcium ionophore, such as ionomycin, in the continued presence of the drug. After a suitable efflux period, the EBSS/ionophore solution was removed from the cells and the ^86Rb^+ content was determined by Cherenkov counting (Wallac Trilux). Cells were then lysed with a SDS solution and the ^86Rb^+ content of the lysate was determined. Percent ^86Rb^+ efflux was calculated according to the following equation: (^86Rb^+ content in EBSS/(^86Rb^+ content in EBSS+^86Rb^+ content of the lysate))×100

Row | IC50 | SMILES
1 | 3 to 30 µM | NC(=O)c1cnn(-c2ccccc2)c1Nc1cncc(-c2ccccn2)n1 [1-Phenyl-5-(6-pyridin-2-yl-pyrazin-2-ylamino)-1H-pyrazole-4-carboxylic acid amide]
2 | 3 to 30 µM | CCOC(=O)c1cnn(-c2ccccc2)c1Nc1cncc(-c2ccccn2)n1 [1-Phenyl-5-(6-pyridin-2-yl-pyrazin-2-ylamino)-1H-pyrazole-4-carboxylic acid ethyl ester]
3 | 3 to 30 µM | CC(=O)c1sc(Nc2cncc(-c3ccccn3)n2)nc1C [1-[4-Methyl-2-(6-pyridin-2-yl-pyrazin-2-ylamino)-thiazol-5-yl]ethanone]
4 | < 0.05 µM | O=C1CCCN1c1ccc(Nc2cncc(-c3ccccn3)n2)nc1 [1-[6-(6-Pyridin-2-yl-pyrazin-2-ylamino)-pyridin-3-yl]-pyrrolidin-2-one]
5 | 0.05 to 1 µM | O=C1CCCN1c1ccc(Nc2cncc(-c3nccs3)n2)nc1 [1-[6-(6-Thiazol-2-yl-pyrazin-2-ylamino)-pyridin-3-yl]-pyrrolidin-2-one]
6 | 0.05 to 1 µM | Cc1cnn(-c2cncc(Nc3ccc(N4CCCC4=O)cn3)n2)c1 [1-{6-[6-(4-Methyl-pyrazol-1-yl)-pyrazin-2-ylamino]-pyridin-3-yl}-pyrrolidin-2-one]
7 | 3 to 30 µM | COc1cccc(-c2cncc(-c3cccc(OC)n3)n2)n1 [2,6-Bis-(6-methoxy-pyridin-2-yl)-pyrazine]
8 | 3 to 30 µM | Oc1cccnc1Nc1cncc(-c2ccccn2)n1 [2-(6-Pyridin-2-yl-pyrazin-2-ylamino)-pyridin-3-ol]
9 | 3 to 30 µM | CCOC(=O)c1c[nH]nc1Nc1cncc(-c2ccccn2)n1 [3-(6-Pyridin-2-yl-pyrazin-2-ylamino)-1H-pyrazole-4-carboxylic acid ethyl ester]
10 | 3 to 30 µM | N#Cc1cncnc1Nc1cncc(-c2ccccn2)n1 [4-(6-Pyridin-2-yl-pyrazin-2-ylamino)-pyrimidine-5-carbonitrile]
11 | 3 to 30 µM | CN1CCN(c2ccc(Nc3cncc(-c4ccccn4)n3)nc2)C(=O)C1 [4-Methyl-1-[6-(6-pyridin-2-yl-pyrazin-2-ylamino)-pyridin-3-yl]-piperazin-2-one]
12 | 3 to 30 µM | CCOC(=O)c1sc(Nc2cncc(-c3ccccn3)n2)nc1-c1ccccc1 [4-Phenyl-2-(6-pyridin-2-yl-pyrazin-2-ylamino)-thiazole-5-carboxylic acid ethyl ester]
13 | 3 to 30 µM | NC(=O)c1ncc(-c2ccccn2)nc1Nc1ccccn1 [5-Pyridin-2-yl-3-(pyridin-2-ylamino)-pyrazine-2-carboxylic acid amide]
14 | 3 to 30 µM | NC(=O)c1ccc(Nc2cncc(-c3ccccn3)n2)nc1 [6-(6-Pyridin-2-yl-pyrazin-2-ylamino)-nicotinamide]
15 | 3 to 30 µM | Cn1c(Nc2cncc(-c3ccccn3)n2)nc2ccccc21 [(1-Methyl-1H-benzoimidazol-2-yl)-(6-pyridin-2-yl-pyrazin-2-yl)-amine]
16 | 3 to 30 µM | [O-][n+]1ccccc1Nc1cncc(-c2ccccn2)n1 [(1-Oxy-pyridin-2-yl)-(6-pyridin-2-yl-pyrazin-2-yl)-amine]
17 | 3 to 30 µM | Cc1cc(Nc2cncc(-c3ccccn3)n2)c2ccccc2n1 [(2-Methyl-quinolin-4-yl)-(6-pyridin-2-yl-pyrazin-2-yl)-amine]
18 | 3 to 30 µM | Cc1noc(Nc2cncc(-c3ccccn3)n2)c1C [(3,4-Dimethyl-isoxazol-5-yl)-(6-pyridin-2-yl-pyrazin-2-yl)-amine]
19 | 3 to 30 µM | c1ccc(COc2cccnc2Nc2cncc(-c3ccccn3)n2)cc1 [(3-Benzyloxy-pyridin-2-yl)-(6-pyridin-2-yl-pyrazin-2-yl)-amine]
20 | 1 to 3 µM | Brc1ncc(-c2ccccn2)nc1Nc1ccccn1 [(3-Bromo-6-pyridin-2-yl-pyrazin-2-yl)-pyridin-2-yl-amine]
21 | 3 to 30 µM | FC(F)(F)c1cnc(Nc2cncc(-c3ccccn3)n2)c(Cl)c1 [(3-Chloro-5-trifluoromethyl-pyridin-2-yl)-(6-pyridin-2-yl-pyrazin-2-yl)-amine]
22 | 3 to 30 µM | CCCCCOc1cccnc1Nc1cncc(-c2ccccn2)n1 [(3-Pentyloxy-pyridin-2-yl)-(6-pyridin-2-yl-pyrazin-2-yl)-amine]
23 | 3 to 30 µM | COc1cc(OC)nc(Nc2cncc(-c3ccccn3)n2)n1 [(4,6-Dimethoxy-pyrimidin-2-yl)-(6-pyridin-2-yl-pyrazin-2-yl)-amine]
24 | 0.05 to 1 µM | CC1CCN(c2ccc(Nc3cncc(-c4ccccn4)n3)nc2)CC1 [(4-Methyl-3,4,5,6-tetrahydro-2H-[1,3′]bipyridinyl-6′-yl)-(6-pyridin-2-yl-pyrazin-2-yl)-amine]
25 | 3 to 30 µM | Cc1ccnc(Nc2cncc(-c3ccccn3)n2)c1[N+](=O)[O-] [(4-Methyl-3-nitro-pyridin-2-yl)-(6-pyridin-2-yl-pyrazin-2-yl)-amine]
26 | < 0.05 µM | Cc1ccnc(Nc2cncc(-c3ccccn3)n2)c1 [(4-Methyl-pyridin-2-yl)-(6-pyridin-2-yl-pyrazin-2-yl)-amine]

Row | IC50 | SMILES
27 | 0.05 to 1 µM | Cc1ccnc(Nc2cncc(-c3cc(N4CCCC4)ccn3)n2)c1 [(4-Methyl-pyridin-2-yl)-[6-(4-pyrrolidin-1-yl-pyridin-2-yl)-pyrazin-2-yl]-amine]
28 | 3 to 30 µM | c1ccc(-c2csc(Nc3cncc(-c4ccccn4)n3)n2)cc1 [(4-Phenyl-thiazol-2-yl)-(6-pyridin-2-yl-pyrazin-2-yl)-amine]
29 | 3 to 30 µM | Brc1ccc(Nc2cnc(Br)c(-c3ccccn3)n2)nc1 [(5-Bromo-pyridin-2-yl)-(5-bromo-6-pyridin-2-yl-pyrazin-2-yl)-amine]
30 | 0.05 to 1 µM | Brc1ccc(Nc2cncc(-c3ccccn3)n2)nc1 [(5-Bromo-pyridin-2-yl)-(6-pyridin-2-yl-pyrazin-2-yl)-amine]
31 | 0.05 to 1 µM | Clc1ccc(Nc2cncc(-c3ccccn3)n2)nc1 [(5-Chloro-pyridin-2-yl)-(6-pyridin-2-yl-pyrazin-2-yl)-amine]
32 | 1 to 3 µM | Clc1ccc(Nc2cncc(-c3cc(N4CCCC4)ccn3)n2)nc1 [(5-Chloro-pyridin-2-yl)-[6-(4-pyrrolidin-1-yl-pyridin-2-yl)-pyrazin-2-yl]-amine]
33 | 3 to 30 µM | COc1cccc(-c2cncc(Nc3ccc(Cl)cn3)n2)n1 [(5-Chloro-pyridin-2-yl)-[6-(6-methoxy-pyridin-2-yl)-pyrazin-2-yl]-amine]
34 | 0.05 to 1 µM and 1 to 3 µM | Fc1ccc(Nc2cncc(-c3ccccn3)n2)nc1 [(5-Fluoro-pyridin-2-yl)-(6-pyridin-2-yl-pyrazin-2-yl)-amine]
35 | 0.05 to 1 µM | Cc1ccnc(-c2cncc(Nc3ccc(F)cn3)n2)c1 [(5-Fluoro-pyridin-2-yl)-[6-(4-methyl-pyridin-2-yl)-pyrazin-2-yl]-amine]
36 | 3 to 30 µM | Fc1ccc(Nc2cncc(-c3cc(N4CCCC4)ccn3)n2)nc1 [(5-Fluoro-pyridin-2-yl)-[6-(4-pyrrolidin-1-yl-pyridin-2-yl)-pyrazin-2-yl]-amine]
37 | 3 to 30 µM | Cc1ccc(-c2cncc(Nc3ccc(F)cn3)n2)nc1 [(5-Fluoro-pyridin-2-yl)-[6-(5-methyl-pyridin-2-yl)-pyrazin-2-yl]-amine]
38 | 3 to 30 µM | c1ccc(-c2cncc(Nc3cc(-c4ccco4)n[nH]3)n2)nc1 [(5-Furan-2-yl-2H-pyrazol-3-yl)-(6-pyridin-2-yl-pyrazin-2-yl)-amine]
39 | 0.05 to 1 µM | c1ccc(-c2cncc(Nc3ccc(-c4ccco4)cn3)n2)nc1 [(5-Furan-2-yl-pyridin-2-yl)-(6-pyridin-2-yl-pyrazin-2-yl)-amine]
40 | 3 to 30 µM | Cc1cnn(-c2cncc(Nc3ccc(I)cn3)n2)c1 [(5-Iodo-pyridin-2-yl)-[6-(4-methyl-pyrazol-1-yl)-pyrazin-2-yl]-amine]
41 | 0.05 to 1 µM | Cc1cc(Nc2cncc(-c3ccccn3)n2)[nH]n1 [(5-Methyl-2H-pyrazol-3-yl)-(6-pyridin-2-yl-pyrazin-2-yl)-amine]
42 | 3 to 30 µM | Cc1nnc(Nc2cncc(-c3ccccn3)n2)s1 [(5-Methyl-[1,3,4]thiadiazol-2-yl)-(6-pyridin-2-yl-pyrazin-2-yl)-amine]
43 | < 0.05 µM | c1ccc(-c2cncc(Nc3ccc(N4CCOCC4)cn3)n2)nc1 [(5-Morpholin-4-yl-pyridin-2-yl)-(6-pyridin-2-yl-pyrazin-2-yl)-amine]
44 | 3 to 30 µM | O=[N+]([O-])c1ccc(Nc2cncc(-c3ccccn3)n2)nc1 [(5-Nitro-pyridin-2-yl)-(6-pyridin-2-yl-pyrazin-2-yl)-amine]
45 | 0.05 to 1 µM | c1ccc(-c2ccc(Nc3cncc(-c4ccccn4)n3)nc2)cc1 [(5-Phenyl-pyridin-2-yl)-(6-pyridin-2-yl-pyrazin-2-yl)-amine]
46 | 3 to 30 µM | c1ccc(-c2ccc(Nc3cncc(-c4nccs4)n3)nc2)cc1 [(5-Phenyl-pyridin-2-yl)-(6-thiazol-2-yl-pyrazin-2-yl)-amine]
47 | 3 to 30 µM | c1ccc(-c2ccc(Nc3cncc(-c4cc(N5CCCC5)ccn4)n3)nc2)cc1 [(5-Phenyl-pyridin-2-yl)-[6-(4-pyrrolidin-1-yl-pyridin-2-yl)-pyrazin-2-yl]-amine]
48 | 3 to 30 µM | CC(C)(C)c1nnc(Nc2cncc(-c3ccccn3)n2)s1 [(5-tert-Butyl-[1,3,4]thiadiazol-2-yl)-(6-pyridin-2-yl-pyrazin-2-yl)-amine]
49 | 3 to 30 µM | c1ccc(Nc2cncc(-c3cc4ccccc4s3)n2)nc1 [(6-Benzo[b]thiophen-2-yl-pyrazin-2-yl)-pyridin-2-yl-amine]
50 | 3 to 30 µM | c1ccc(Nc2cncc(-c3cc4ccccc4o3)n2)nc1 [(6-Benzofuran-2-yl-pyrazin-2-yl)-pyridin-2-yl-amine]
51 | 1 to 3 µM | Fc1cccc(Nc2cncc(-c3ccccn3)n2)n1 [(6-Fluoro-pyridin-2-yl)-(6-pyridin-2-yl-pyrazin-2-yl)-amine]
